Measurements reported in ChEMBL document CHEMBL4680162, “Synthesis and pharmacological evaluation of chlorin derivatives for photodynamic therapy of cholangiocarcinoma” (Eur J Med Chem, 2020).
Calls of active or inactive are those of the source. The rule behind the calls is not given here.

How the values were obtained:
[1] = Absorption property of the compound in DMSO assessed as Q band log absorption coefficient by UV-visible spectrophotometric method; type: physicochemical
[2] = Induction of singlet oxygen generation in DMSO assessed as bleaching rate at 10 uM under 650 nanometer light irradiation; type: functional
[3] = Phototoxicity in BALB/c nude mouse xenografted with QBC939 cells assessed as change in heart at 1 mg/kg, iv followed by laser light irradiation at 120 J/cm2 measured after 1 day of light irradiation by H and E staining based histological analysis; type: organism-based; details: in vivo, 24 h
[4] = Phototoxicity against human QBC939 cells assessed as reduction in cell viability irradiated with 1 J/cm2 of 650 nanometer laser light preincubated for 24 hrs in dark and measured after 24 hrs by MTT assay; type: functional, cell-based; details: QBC939, light or radiation study
[5] = Phototoxicity in BALB/c nude mouse xenografted with QBC939 cells assessed as change in lung at 1 mg/kg, iv followed by laser light irradiation at 120 J/cm2 measured after 1 day of light irradiation by H and E staining based histological analysis; type: organism-based; details: in vivo, 24 h
[6] = Phototoxicity in ICR mouse assessed as back skin weight at 1 mg/kg, iv followed by 10 mW/cm2 light irradiation for 10 mins at 1 day after drug challenge and measured after 1 day of light irradiation by H and E staining based microscopic analysis (reference value: 34.3 +/- 2.1 mg); type: organism-based; details: in vivo, 48 h, time 2 day
[7] = Dark toxicity in human QBC939 cells assessed as reduction in cell viability incubated under dark for 24 hrs measured after 24 hrs by MTT assay; type: cell-based; details: read-out: TC50
[8] = Phototoxicity in ICR mouse assessed as tail weight at 1 mg/kg, iv followed by 10 mW/cm2 light irradiation for 10 mins at 1 day after drug challenge and measured after 1 day of light irradiation by H and E staining based microscopic analysis (reference value: 115.6 +/- 5.6 mg); type: organism-based; details: in vivo, 48 h, time 2 day
[9] = Phototoxicity against human QBC939 cells assessed as reduction in cell viability irradiated with 2 J/cm2 of 650 nanometer laser light preincubated for 24 hrs in dark and measured after 24 hrs by MTT assay; type: functional, cell-based; details: QBC939, light or radiation study
[10] = Induction of apoptosis in human QBC939 cells assessed as late apoptotic cells at 2 uM in presence of 2J/cm2 light irradiation measured after 2 hrs by annexin V-FITC and propidium iodide staining based flow cytometric analysis (reference value: 0.01 %); type: functional
[11] = Induction of apoptosis in human QBC939 cells assessed as early apoptotic cells at 2 uM in presence of 2J/cm2 light irradiation measured after 2 hrs by annexin V-FITC and propidium iodide staining based flow cytometric analysis (reference value: 0.01 %); type: functional
[12] = Emission property of compound in DMSO assessed as Q band emission wavelength by […]; type: physicochemical
[13] = Drug localization in nucleus of human QBC939 cells at 4 uM incubated for 4 hrs in dark by Hoechst 33342 based confocal microscopic method; type: ADME, subcellular; details: qbc939, 4 h
QBC939 = experiment: Photodynamic antitumour activity against human QBC939 cells xenografted in BABL/c nude mouse assessed as increase in apoptotic cells at 1 mg/kg, iv measured after 1 day of light irradiation by TUNEL assay; type: functional, organism-based
[14] = Phototoxicity in ICR mouse assessed as pathological changes 1 mg/kg, iv in presence of 10 mW/cm2 light irradiation for 10 mins at 1 day after drug challenge and measured after 1 day of light irradiation by H and E staining based microscopic analysis; type: organism-based; details: in vivo, 48 h, time 2 day
[15] = Drug localization in lysosome of human QBC939 cells at 4 uM incubated for 4 hrs in dark by lyso-tracker blue based confocal microscopic method; type: ADME, subcellular; details: qbc939, 4 h
[16] = Drug uptake in mouse assessed as drug level in plasma at 1 mg/kg, iv measured upto 24 hrs by fluorometric method; type: ADME, organism-based; details: in vivo

COC(=O)C1(C(=O)O)C2c3nc(c(-c4ccccc4)c4ccc([nH]4)c(-c4ccccc4)c4nc(c(-c5ccccc5)c5ccc([nH]5)c3-c3ccccc3)C=C4)C21 (configuration not stated)
Activity [1]: 4.02
Activity [2]: Active
Activity [3]: Non-Toxic
IC50 [4]: 1.91 µM
Activity [5]: Non-Toxic
Activity [6]: 35.1 mg
CC50 at 48 h [7]: > 8 µM
Activity [8]: 116.5 mg
IC50 [9]: 1.36 µM
Activity [10]: 14.73%
Activity [11]: 23.2%
Activity [12]: 652 nm
Drug uptake [13]: Not Active
Activity (QBC939): Active
Activity [14]: Non-Toxic
Drug uptake [15]: Active
Drug uptake [16]: Active
